Assay results: patent US10750743B2, “Pyridazinone herbicides” (E.I. DU PONT DE NEMOURS AND COMPANY, priority 2015, dated 2020)

Experiments:
[1] = tested on: barnyardgrass (Echinochloa crus-galli); experiment: Test B flooded paddy test, visual rating; type: in vivo; details: Echinochloa crus-galli, 360 h; Flood, 250 g ai/ha, applied to paddy water, rated after 13 to 15 d; read-out: Barnyardgrass plant response rating (0 to 100 scale, 0 is no effect, 100 is complete control)
In short: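 Plants at the 2-leaf stage were flooded to 3 cm above soil, and test compounds were applied directly into the paddy water, which was held at that depth throughout. After 13 to 15 d in a greenhouse, injury was rated visually against untreated controls on a 0–100 scale (0 no effect, 100 complete control).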

| melting point [°C] | Compound | pest or weed control at 250 g/ha [1] [%] |
| --- | --- | --- |
| 194 to 199 | Cc1cc2ccc(C)c(-c3c(O)c(C)nn(C)c3=O)c2o1 [Compound 10, 4-(2,6-dimethyl-7-benzofuranyl)-5-hydroxy-2,6-dimethyl-3(2H)-pyridazinone] | 0 |
| 93 to 96 | CC(=O)Oc1c(C)nn(C)c(=O)c1-c1c(C)ccc2cc(C)oc12 [Compound 11, 5-(acetyloxy)-4-(2,6-dimethyl-7-benzofuranyl)-2,6-dimethyl-3(2H)-pyridazinone] | 0 |
| – | Cc1cc2cccc(-c3c(O)c(C)nn(C)c3=O)c2o1 [Compound 12, 5-hydroxy-2,6-dimethyl-4-(2-methyl-7-benzofuranyl)-3(2H)-pyridazinone] | 0 |
| 115 to 118 | Cc1nn(C)c(=O)c(-c2cccc3snc(C)c23)c1O [Compound 25, 5-hydroxy-2,6-dimethyl-4-(3-methyl-1,2-benzisothiazol-4-yl)-3 (2H)-pyridazinone] | 0 |
| – | Cc1ccc2sccc2c1-c1c(O)c(C)nn(C)c1=O [Compound 29, 5-hydroxy-2,6-dimethyl-4-(5-methylbenzo[b]thien-4-yl)-3(2H)-pyridazinone] | 0 |
| 103 to 107 | CCOC(=O)Oc1c(C)nn(C)c(=O)c1-c1c(C)ccc2sccc12 [Compound 30, 1,6-dihydro-1,3-dimethyl-5-(5-methylbenzo[b]thien-4-yl)-6-oxo-4-pyridazinyl ethyl carbonate] | 0 |
| – | Cn1nc(Cl)c(O)c(-c2nccc3ccccc23)c1=O [Compound 67, 6-chloro-5-hydroxy-4-(1-isoquinolinyl)-2-methyl-3(2H)-pyridazinone] | 0 |
| – | Cc1nn(C)c(=O)c(-c2ccc(F)c3ccoc23)c1O [Compound 68, 4-(4-fluoro-7-benzofuranyl)-5-hydroxy-2,6-dimethyl-3(2H)-pyridazinone] | 0 |
| – | COc1c(C)nn(C)c(=O)c1-c1ccc(F)c2ccoc12 [Compound 69, 4-(4-fluoro-7-benzofuranyl)-5-methoxy-2,6-dimethyl-3(2H)-pyridazinone] | 0 |
